According to patent publication US4857507A, “Angiotensinogen analogs” (Abbott Laboratories, priority 1987, dated 1989):

Target: T1, human renal renin (Homo sapiens, UniProt P00797)
T1 construct: human renal renin, free from acid proteolytic activity; from tissue; host or cells: human kidney (from the word 'renal')
T1 sequence (P00797 67-406): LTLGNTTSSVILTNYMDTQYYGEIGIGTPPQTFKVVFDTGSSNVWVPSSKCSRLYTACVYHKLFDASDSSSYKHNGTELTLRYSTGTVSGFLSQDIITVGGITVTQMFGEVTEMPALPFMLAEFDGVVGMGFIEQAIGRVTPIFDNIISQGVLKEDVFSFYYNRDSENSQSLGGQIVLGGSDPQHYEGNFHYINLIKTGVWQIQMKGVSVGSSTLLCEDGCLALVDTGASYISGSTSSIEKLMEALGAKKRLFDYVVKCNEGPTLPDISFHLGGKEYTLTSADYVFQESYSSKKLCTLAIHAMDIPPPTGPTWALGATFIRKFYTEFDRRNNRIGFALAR
Assay: inhibition of human renal renin in vitro, angiotensin I formed measured by radioimmunoassay
Format: biochemical
Conditions: 37° C., pH 6.0; for IC50: human renal renin with human renin substrate (angiotensinogen)
Procedure: At the end of the incubation, the amount of angiotensin I formed is measured by radioimmunoassay and the molor concentration required to cause 50% inhibition, expressed as the IC50, is calculated.

IC50 [nM]	% inhibition at 10^-5 M (compound at 10^-5 M, human renin substrate (angiotensinogen)) [%]	SMILES
20		CC(C)CCC(=O)NCC[C@H](O)[C@H](CC1CCCCC1)NC(=O)C(Cc1ccncn1)NC(=O)[C@H](Cc1ccccc1)NC(=O)OC(C)(C)C (mixture of isomers) [Example 62, Boc-Phe-dl-4-pyrimidinylalanine Amide of (3S,4S)-1-(3-Methylbutylcarbonylamino)-3-hydroxy-4-amino-5-cyclohexylpentane]
15		CC(C)CCC(=O)NCC[C@H](O)[C@H](CC1CCCCC1)NC(=O)[C@H](Cc1cnc[nH]1)NC(=O)[C@H](Cc1ccccc1)NC(=O)OC(C)(C)C [Example 35, Boc-Phe-His Amide of (3S,4S)-1-(3-Methylbutylcarbonylamino)-3-hydroxy-4-amino-5-cyclohexylpentane]
80		CC(C)C[C@H](NC(=O)C(Cc1cnc[nH]1)NC(=O)C(Cc1ccccc1)NC(=O)OC(C)(C)C)[C@@H](O)CCS(=O)(=O)CCc1ccccc1 (stereo partly drawn) [Example 23, Boc-Phe-His amide of (3S,4S)-4-amino-3-hydroxy-6-methyl-1-phenethylsulfonylheptane]
20		CC(C)CCC(=O)NCC(F)(F)[C@H](O)[C@H](CC1CCCCC1)NC(=O)C(CC(C)C)NC(=O)C(Cc1ccccc1)NC(=O)OC(C)(C)C (stereo partly drawn) [Example 85, Boc-Phe-Leu amide of (3R,4S)-3-hydroxy-4-amino-2,2-difluoro-1-isopentylcarbonylamino-5-cyclohexylpentane]
20		CCCS(=O)(=O)CC(=O)NCC[C@H](O)[C@H](CC1CCCCC1)NC(=O)[C@H](Cc1cnc[nH]1)NC(=O)[C@H](Cc1ccccc1)NC(=O)OC(C)(C)C [Example 68, Boc-Phe-His Amide of (3S,4S)-1-(2-Propylsulfonylacetylamino)-3-hydroxy-4-amino-5-cyclohexylpentane]
4.5		CC(C)CC(NC(=O)C(Cc1ccccc1)NC(=O)OC(C)(C)C)C(=O)N[C@@H](CC1CCCCC1)[C@@H](O)C(F)=CS(=O)(=O)C(C)C (stereo partly drawn) [Example 87, Boc-Phe-Leu amide of (3R,4S,EZ)-3-hydroxy-4-amino-2-fluoro-1-isopropyl-sulfonyl-5-cyclohexyl-1- pentene]
2.5		CC(C)C[C@H](NC(=O)[C@H](Cc1ccccc1)NC(=O)OC(C)(C)C)C(=O)N[C@@H](CC1CCCCC1)C(=O)C(F)(F)CN=[N+]=[N-] [Example 88, Boc-Phe-Leu amide of (4S)-3-oxo-4-amino-2,2-difluoro-1-azido-5-cyclohexylpentane]
2500		CC(C)CCC(=O)CC[C@H](O)[C@H](CC(C)C)NC(=O)[C@H](C)NC(=O)[C@H](Cc1ccccc1)NC(=O)OC(C)(C)C [Example 30, Boc-Phe-Ala amide of (4S,5S)-4-amino-2,11-dimethyl-5-hydroxy-8-oxododecane]
4000		CC(C)C[C@H](NC(=O)C(C)NC(=O)C(Cc1ccccc1)NC(=O)OC(C)(C)C)[C@@H](O)CCSCCc1ccccc1 (stereo partly drawn) [Example 16, Boc-Phe-Ala amide of (3S,4S)-4-amino-3-hydroxy-6-methyl-1-phenethylmercaptoheptane]
30		CC(C)CCC(=O)NCC[C@H](O)[C@H](CC1CCCCC1)NC(=O)C(C)NC(=O)C(Cc1ccccc1)NC(=O)OC(C)(C)C (stereo partly drawn) [Example 34, Boc-Phe-Ala Amide of (3S,4S)-1-(3-Methylbutylcarbonylamino)-3-hydroxy-4-amino-5-cyclohexylpentane]
30		CC(C)C[C@H](NC(=O)[C@H](Cc1ccccc1)NC(=O)OC(C)(C)C)C(=O)N[C@@H](CC1CCCCC1)[C@@H](O)C(F)(F)CN=[N+]=[N-] [Example 78, Boc-Phe-Leu amide of (3R,4S)-3-hydroxy-4-amino-2,2-difluoro-1-azido-5-cyclohexylpentane]
2000		CC(C)C[C@H](NC(=O)C(C)NC(=O)C(Cc1ccccc1)NC(=O)OC(C)(C)C)[C@@H](O)CCOc1ccccc1 (stereo partly drawn) [Example 21, Boc-Phe-Ala amide of (3S,4S)-4-amino-3-hydroxy-6-methyl-1-phenoxyheptane]
25		CCCSCC(=O)NCC[C@H](O)[C@H](CC1CCCCC1)NC(=O)C(Cc1cnc[nH]1)NC(=O)C(Cc1ccccc1)NC(=O)OC(C)(C)C (stereo partly drawn) [Example 67, Boc-Phe-His Amide of (3S,4S)-1-(2-Propylmercaptoacetylamino)-3-hydroxy-4-amino-5-cyclohexylpentane]
2000		CC(C)C[C@H](NC(=O)[C@H](C)NC(=O)[C@H](Cc1ccccc1)NC(=O)OC(C)(C)C)[C@@H](O)CCS(=O)(=O)CCc1ccccc1 [Example 18, Boc-Phe-Ala amide of (3S,4S)-4-amino-3-hydroxy-6-methyl-1-phenethylsulfonylheptane]
10		CC(C)CC(NC(=O)C(Cc1ccccc1)NC(=O)OC(C)(C)C)C(=O)N[C@@H](CC1CCCCC1)[C@@H](O)C(F)(F)CS(=O)(=O)C(C)C (stereo partly drawn) [Example 86, Boc-Phe-Leu amide of (3R,4S)-3-hydroxy-4-amino-2,2-difluoro-1-isopropylsulfonyl-5-cyclohexylpentane]
	41	CC(C)CCC(=O)NC(CC(O)C(CC(C)C)NC(=O)[C@H](C)NC(=O)[C@H](Cc1ccccc1)NC(=O)OC(C)(C)C)c1ccccc1 (stereo partly drawn) [Example 42, Boc-Phe-Ala amide of 4-amino-3-hydroxy-6-methyl-1-(4-methylvaleryl)amino-1-phenylheptane]
10		CC(C)CCC(=O)NCC[C@H](O)[C@H](CC1CCCCC1)NC(=O)C(Cc1cscn1)NC(=O)C(Cc1ccccc1)NC(=O)OC(C)(C)C (mixture of isomers) [Example 59, Boc-Phe-dl-4-thiazolylalanine Amide of (3S,4S)-1-(3-Methylbutylcarbonylamino)-3-hydroxy-4-amino-5-cyclohexylpentane]
50		CC(C)CC(NC(=O)C(Cc1ccccc1)NC(=O)OC(C)(C)C)C(=O)N[C@@H](CC1CCCCC1)[C@@H](O)C(F)=CSC(C)C (stereo partly drawn) [Example 83(B), Boc-Phe-Leu amide of (3R,4S,EZ)-3-hydroxy-4-amino-2-fluoro-1-isopropylmercapto-5-cyclohexyl-1-pentene]
